{"source": "ChEMBL document CHEMBL5223152", "about": "“Recent advances toward the development of Hsp90 C-terminal inhibitors” (Bioorg Med Chem Lett, 2023)", "key": {"[1]": {"tested_on": "UACC-62", "experiment": "Antiproliferative activity against human UACC-62 cells assessed as inhibition of cell growth", "type": "functional"}, "[2]": {"target": "T1, Heat shock protein HSP 90-alpha (Homo sapiens, UniProt P07900)", "experiment": "Inhibition of recombinant GST-tagged HSP90alpha NTD (9 to 236 residues) (unknown origin) ATPase activity expressed in Escherichia coli BL21 (DE3)"}, "[3]": {"tested_on": "K562", "experiment": "Antiproliferative activity against BCR-ABL1 positive human K562 cells assessed as inhibition of cell growth incubated for 72 hrs by ATP-based celltiter Glo assay", "type": "functional", "details": "K562, 72 h"}, "[4]": {"target": "T1, Heat shock protein HSP 90-alpha", "experiment": "Binding affinity to human recombinant HSP90alpha C-terminal domain (563 to 732 residues) expressed in Escherichia coli BL21(DE3) cells assessed as dissociation constant incubated for 15 mins by microscale thermophoresis analysis"}, "[5]": {"tested_on": "NCI-H1299", "experiment": "Antiproliferative activity against human NCI-H1299 cells assessed as inhibition of cell growth incubated for 3 days by MTT assay", "type": "functional, cell-based", "details": "NCI-H1299, 72 h"}, "[6]": {"tested_on": "MDA-MB-231", "experiment": "Antiproliferative activity against human MDA-MB-231 cells assessed as inhibition of cell growth incubated for 48 to 72 hrs by MTS assay", "type": "functional, cell-based"}, "[7]": {"tested_on": "HCT-116", "experiment": "Antiproliferative activity against human HCT-116 cells assessed as reduction in cell viability incubated for 72 hrs by MTT assay", "type": "functional, cell-based", "details": "HCT-116, 72 h"}, "[8]": {"tested_on": "UMSCC22B", "experiment": "Antiproliferative activity against human UMSCC22B cells assessed as inhibition of orosphere formation incubated for 10 to 14 days by light microscopic analysis", "type": "functional, cell-based"}, "[9]": {"tested_on": "SK-BR-3", "experiment": "Antiproliferative activity against human SK-BR-3 cells assessed as inhibition of cell proliferation", "type": "functional, cell-based"}, "[10]": {"tested_on": "Jurkat", "experiment": "Antiproliferative activity against human jurkat cells assessed as reduction in cell viability incubated for 48 hrs by MTT assay", "type": "functional, cell-based"}, "[11]": {"tested_on": "NCI-H1299", "experiment": "Antiproliferative activity against human NCI-H1299 cells assessed as reduction in cell viability incubated for 2 to 3 days by MTT assay", "type": "functional, cell-based"}, "[12]": {"tested_on": "MCF7", "experiment": "Antiproliferative activity against human MCF7 cells assessed as inhibition of cell proliferation incubated for 72 hrs by MTS assay", "type": "functional, cell-based", "details": "MCF7, 72 h"}, "[13]": {"tested_on": "SK-N-MC", "experiment": "Antiproliferative activity against human SK-N-MC cells assessed as inhibition of cell proliferation by MTS assay", "type": "functional, cell-based"}, "[14]": {"tested_on": "MCF7", "experiment": "Antiproliferative activity against human MCF7 cells assessed as inhibition of cell proliferation by MTS assay", "type": "functional, cell-based"}, "[15]": {"tested_on": "NCI-H1299", "experiment": "Antiproliferative activity against human NCI-H1299 cells assessed as inhibition of cell growth", "type": "functional, cell-based"}, "[16]": {"target": "T1, Heat shock protein HSP 90-alpha", "experiment": "Binding affinity to recombinant HSP90alpha (unknown origin) assessed as dissociation constant incubated for 30 mins by intrinsic fluorescence based spectroscopic analysis"}, "[17]": {"target": "Heat shock protein HSP 90-beta (Homo sapiens, UniProt P08238)", "sequence (P08238 whole entry)": "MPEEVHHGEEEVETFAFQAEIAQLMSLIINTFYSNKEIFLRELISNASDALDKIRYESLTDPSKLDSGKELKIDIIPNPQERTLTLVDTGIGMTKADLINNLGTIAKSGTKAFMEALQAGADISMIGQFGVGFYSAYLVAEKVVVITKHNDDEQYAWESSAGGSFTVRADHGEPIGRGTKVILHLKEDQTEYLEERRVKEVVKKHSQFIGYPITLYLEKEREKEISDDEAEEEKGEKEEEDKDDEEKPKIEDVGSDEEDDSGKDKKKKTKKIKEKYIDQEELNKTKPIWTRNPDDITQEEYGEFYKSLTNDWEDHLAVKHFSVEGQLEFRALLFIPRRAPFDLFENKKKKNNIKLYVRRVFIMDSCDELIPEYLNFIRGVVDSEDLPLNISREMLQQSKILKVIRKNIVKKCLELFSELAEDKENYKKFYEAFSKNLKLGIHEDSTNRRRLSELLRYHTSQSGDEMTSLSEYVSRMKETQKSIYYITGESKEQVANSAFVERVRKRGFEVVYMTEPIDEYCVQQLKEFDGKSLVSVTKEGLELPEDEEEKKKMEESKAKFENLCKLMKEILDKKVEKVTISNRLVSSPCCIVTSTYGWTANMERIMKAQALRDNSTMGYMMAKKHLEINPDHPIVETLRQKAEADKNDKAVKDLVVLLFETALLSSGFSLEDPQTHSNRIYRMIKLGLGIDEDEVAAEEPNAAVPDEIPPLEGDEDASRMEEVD", "experiment": "Binding affinity to recombinant HSP90beta (unknown origin) assessed as dissociation constant incubated for 30 mins by intrinsic fluorescence based spectroscopic analysis"}, "[18]": {"experiment": "Antiproliferative activity against human LNCap-LN3 cells assessed as inhibition of cell growth incubated for 24 hrs by CellTiter-glo luminescence assay", "type": "functional, cell-based", "details": "LNCaP-LN3, 24 h"}, "[19]": {"tested_on": "SK-BR-3", "experiment": "Antiproliferative activity against human SK-BR-3 cells assessed as inhibition of cell proliferation incubated for 72 hrs by MTS proliferation assay", "type": "functional, cell-based", "details": "SK-BR-3, 72 h"}, "[20]": {"target": "Heat shock protein HSP90 (Homo sapiens, UniProt P07900+P08238)", "experiment": "Binding affinity to NT-647 labelled recombinant HSP90 (unknown origin) C-terminal domain assessed as dissociation constant by microscale thermophoresis analysis", "type": "protein assay"}, "[21]": {"tested_on": "NCI-H1299", "experiment": "Antiproliferative activity against human NCI-H1299 cells assessed as reduction in cell viability incubated for 5 days by MTT assay", "type": "functional, cell-based", "details": "NCI-H1299, 120 h"}, "[22]": {"target": "T1, Heat shock protein HSP 90-alpha", "experiment": "Binding affinity to recombinant human HSP90alpha assessed as dissociation constant measured for 300 secs by SPR analysis"}}}
{"smiles": "COc1cccc(-c2cc(NC(=O)Nc3cc4ccc(OC5CCN(C)CC5)c(C)c4oc3=O)ccc2C)c1", "values": [{"measurement": "IC50", "setting": "[1]", "value": 360, "unit": "nM"}]}
{"smiles": "CC(C)(C)CC(C)(C)NCC(O)COc1ccc(C(C)(C)c2ccc(OCC(O)CNC(C)(C)CC(C)(C)C)cc2)cc1", "note": "(stereo not given)", "values": [{"measurement": "IC50", "setting": "[2]", "value": 119000, "unit": "nM"}]}
{"smiles": "CCC(C)n1c(C(=O)NC2CN=C(C(=O)NC)N(CC(C)C)C2=O)ncc(NC(=O)c2ncc(NC(=O)c3ccccc3)c(=O)n2Cc2ccc(OC)cc2)c1=O", "note": "(stereo not given)", "values": [{"measurement": "IC50", "setting": "[3]", "value": 1300, "unit": "nM"}, {"measurement": "Kd", "setting": "[4]", "value": 3420, "unit": "nM"}]}
{"smiles": "COc1cc2nccc(C(OC(C)=O)c3ccc4c(c3OC)C=CC(C)(C)O4)c2cc1OC", "note": "(stereo not given)", "values": [{"measurement": "IC50", "setting": "[5]", "value": 1000, "unit": "nM"}]}
{"smiles": "COc1cc2nccc(C(OC(=O)C3CC3)c3ccc4c(c3)C=CC(C)(C)O4)c2cc1OC", "note": "(stereo not given)", "values": [{"measurement": "IC50", "setting": "[6]", "value": 5000, "unit": "nM"}]}
{"smiles": "COc1ccc2c(c1OC)O[C@]13C(=O)N4O[C@H]5[C@H](O)C=C[C@@H](Cl)[C@@]5(O)C[C@@]4(SS[C@H]21)C(=O)N3C", "values": [{"measurement": "IC50", "setting": "[7]", "value": 330, "unit": "nM"}]}
{"smiles": "Cc1c(OC2CCN(C)CC2)ccc2cc(NC(=S)Nc3cccc(Cl)c3)c(=O)oc12", "values": [{"measurement": "IC50", "setting": "[8]", "value": 20000, "unit": "nM"}]}
{"smiles": "COc1cccc(-c2cc(C(=O)Nc3ccc(/C=C/c4ccc(OC5CCN(C)CC5)cc4)cc3)ccc2OC)c1", "values": [{"measurement": "IC50", "setting": "[9]", "value": 680, "unit": "nM"}]}
{"smiles": "CCOC(=O)C1=C(C)N(c2ccccc2)C(=O)NC1c1cc(O)ccc1Br", "note": "(stereo not given)", "values": [{"measurement": "IC50", "setting": "[10]", "value": 15200, "unit": "nM"}]}
{"smiles": "COc1cccc(-c2cccc(NC(=O)Nc3cc4ccc(OC5CCN(C)CC5)c(C)c4oc3=O)c2)c1", "values": [{"measurement": "IC50", "setting": "[8]", "value": 1000, "unit": "nM"}]}
{"smiles": "COc1cc(NC(=O)c2ccc3c(c2OC)C=CC(C)(C)O3)ccc1OCCc1ccncc1", "values": [{"measurement": "IC50", "setting": "[11]", "value": 230, "unit": "nM"}]}
{"smiles": "Cc1ccc(Cl)c(OCC2(O)CCN(Cc3ccc(OCCN4CCOCC4)cc3)CC2)c1", "values": [{"measurement": "IC50", "setting": "[12]", "value": 31800, "unit": "nM"}]}
{"smiles": "Nc1c(C(=O)c2ccc(-c3ccc(Br)cc3)cc2)sc2nc3c(c(-c4ccccc4)c12)CNCC3", "values": [{"measurement": "IC50", "setting": "[13]", "value": 2800, "unit": "nM"}, {"measurement": "IC50", "setting": "[14]", "value": 1400, "unit": "nM"}]}
{"smiles": "COc1cc2nccc(C(OC(=O)C3CC3)c3ccc4c(c3OC)C=CC(C)(C)O4)c2cc1OC", "note": "(stereo not given)", "values": [{"measurement": "IC50", "setting": "[15]; Homo sapiens, NCI-H1299, read-out: IC50", "value": 1000, "unit": "nM"}]}
{"smiles": "Cc1c(OCCC2CCCCN2)ccc2cc(NC(=O)Nc3ccc(Cl)cc3)c(=O)oc12", "note": "(stereo not given)", "values": [{"measurement": "Kd", "setting": "[16]", "value": 191000, "unit": "nM"}, {"measurement": "Kd", "setting": "[17]", "value": 726000, "unit": "nM"}, {"measurement": "IC50", "setting": "[18]", "value": 2000, "unit": "nM"}]}
{"smiles": "COc1cc(NC(=O)c2ccc3c(c2OC)C=CC(C)(C)O3)ccc1OCCC1CCCCN1", "note": "(stereo not given)", "values": [{"measurement": "IC50", "setting": "[19]", "value": 2000, "unit": "nM"}]}
{"smiles": "Cc1ccc(Cn2cc(C(=O)Nc3ccc(/C=C/c4ccc(OC5CCN(C)CC5)cc4)cc3)nn2)cc1", "values": [{"measurement": "IC50", "setting": "[9]", "value": 99, "unit": "nM"}]}
{"smiles": "COc1ccc(CC(=O)c2ccc3c(c2OC)C=CC(C)(C)O3)cc1OC", "values": [{"measurement": "IC50", "setting": "[15]", "value": 140, "unit": "nM"}]}
{"smiles": "CC[C@@H](C)[C@@H](ONC(=O)[C@H](ONC(=O)[C@@H](Cc1ccccc1)ONC(=O)[C@@H](Cc1ccccc1)ONC(=O)OCc1ccccc1)[C@H](C)CC)C(=O)NO[C@H](CC(C)C)C(=O)NO[C@H](CC(C)C)C(N)=O", "values": [{"measurement": "Kd", "setting": "[20]", "value": 27400, "unit": "nM"}]}
{"smiles": "COc1cc(NC(=O)c2ccc3c(c2OC)C=CC(C)(C)O3)ccc1OCCc1cccnc1", "values": [{"measurement": "EC50", "setting": "[21]", "value": 230, "unit": "nM"}]}
{"smiles": "COc1ccc(NCC(=O)Nc2ncc(Cc3ccc(Cl)c(Cl)c3)s2)cc1", "values": [{"measurement": "Kd", "setting": "[22]", "value": 20.9, "unit": "nM"}]}
